The target in this experiment is T1, RORc ligand binding domain (Homo sapiens, UniProt P51449).
T1 construct: host or cells: E. coli
T1 sequence (P51449 269-508 limits assumed): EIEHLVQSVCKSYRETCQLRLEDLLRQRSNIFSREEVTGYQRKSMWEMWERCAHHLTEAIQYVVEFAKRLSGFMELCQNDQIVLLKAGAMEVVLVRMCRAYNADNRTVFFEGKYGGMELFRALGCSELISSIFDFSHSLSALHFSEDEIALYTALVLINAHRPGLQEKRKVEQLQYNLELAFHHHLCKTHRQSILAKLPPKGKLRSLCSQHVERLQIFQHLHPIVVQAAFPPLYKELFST
In words: In vitro RORc ligand binding assay (25-[3H]hydroxycholesterol displacement, filter binding). To be noted: 6 nM 25-[3H]hydroxycholesterol, 0.6 ug/mL RORc receptor, 3 h at 25° C. In outline:
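Filter-binding displacement of 6 nM 25-[3H]hydroxycholesterol from RORc receptor (0.6 ug/mL) in 50 mM HEPES pH 7.4, 150 mM NaCl, 5 mM MgCl2, 1 mM DTT, 0.01% BSA, 5% DMSO; 3 h at 25° C. NSB defined with 1 uM 25-hydroxycholesterol; scintillation counting gave Kiapp, IC50 or % inhibition (screening at 1 and 10 uM).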
A word on the IC50: it is the concentration needed to halve the response being measured. `CC1(C)[C@H]2CC[C@]1(NCC(F)F)c1nnc(-c3c(F)cccc3F)cc12` [Example 307, (5R,8R)-N-(2,2-difluoroethyl)-3-(2,6-difluorophenyl)-9,9-dimethyl-5,6,7,8-tetrahydro-5,8-methanocinnolin-8-amine] displayed a concentration for half-maximal inhibition (IC50) of 71 nM.

The compound `CC1(C)[C@H]2CC[C@]1(CN(CC(F)F)C(=O)CO)c1nnc(-c3c(F)cccc3F)cc12` [Example 308, N-(2,2-difluoroethyl)-N-(((5R,8S)-3-(2,6-difluorophenyl)-9,9-dimethyl-5,6,7,8-tetrahydro-5,8-methanocinnolin-8-yl)methyl)-2-hydroxyacetamide] yielded an IC50 of 22 nM.

`CC1(C)[C@H]2CC[C@]1(CNCCC#N)c1nnc(-c3c(F)cccc3F)cc12` [Example 309, 3-((((5R,8S)-3-(2,6-difluorophenyl)-9,9-dimethyl-5,6,7,8-tetrahydro-5,8-methanocinnolin-8-yl)methyl)amino) propanenitrite] had a half-inhibitory concentration (IC50) of 590 nM. The same measure for `CC1(C)[C@H]2CC[C@]1(CN(CCC#N)C(N)=O)c1nnc(-c3c(F)cccc3F)cc12` [Example 310, 1-(2-cyanoethyl)-1-(((5R,8S)-3-(2,6-difluorophenyl)-9,9-dimethyl-5,6,7,8-tetrahydro-5,8-methanocinnolin-8-yl)methyl)urea]: 363 nM. `COCC(=O)N(CCC#N)C[C@@]12CC[C@@H](c3cc(-c4c(F)cccc4F)nnc31)C2(C)C` [Example 311, N-(2-cyanoethyl)-N-(((5R,8S)-3-(2,6-difluorophenyl)-9,9-dimethyl-5,6,7,8-tetrahydro-5,8-methanocinnolin-8-yl)methyl)-2-methoxyacetamide] yielded an IC50 of 176 nM.

As for `CCOC(=O)N(CCC#N)C[C@@]12CC[C@@H](c3cc(-c4c(F)cccc4F)nnc31)C2(C)C` [Example 312, ethyl (2-cyanoethyl)(((5R,8S)-3-(2,6-difluorophenyl)-9,9-dimethyl-5,6,7,8-tetrahydro-5,8-methanocinnolin-8-yl)methyl)carbamate], the half-inhibitory concentration (IC50) was 45 nM. As for `CN(C(=O)CO)[C@@]12CC[C@@H](c3cc(-c4c(F)cccc4F)nnc31)C2(C)C` [Example 313, N-((5R,8R)-3-(2,6-difluorophenyl)-9,9-dimethyl-5,6,7,8-tetrahydro-5,8-methanocinnolin-8-yl)-2-hydroxy-N-methylacetamide], the IC50 was 393 nM. Turning to `C[C@@H]1CN(C[C@@]23CC[C@@H](c4cc(-c5c(F)cccc5F)nnc42)C3(C)C)C(=O)O1` [Example 314, (R)-3-(((5R,8S)-3-(2,6-difluorophenyl)-9,9-dimethyl-5,6,7,8-tetrahydro-5,8-methanocinnolin-8-yl)methyl)-5-methyloxazolidin-2-one], the IC50 amounted to 454 nM.

In turn, `C[C@H]1CN(C[C@@]23CC[C@@H](c4cc(-c5c(F)cccc5F)nnc42)C3(C)C)C(=O)O1` [Example 315, (S)-3-(((5R,8S)-3-(2,6-difluorophenyl)-9,9-dimethyl-5,6,7,8-tetrahydro-5,8-methanocinnolin-8-yl)methyl)-5-methyloxazolidin-2-one] displayed a 50% inhibitory concentration (IC50) of 350 nM.

`CC1(C)[C@H]2CC[C@]1(CN(CCC#N)C(=O)CO)c1nnc(-c3c(F)cccc3F)cc12` [Example 316, N-(2-cyanoethyl)-N-(((5R,8S)-3-(2,6-difluorophenyl)-9,9-dimethyl-5,6,7,8-tetrahydro-5,8-methanocinnolin-8-yl)methyl)-2-hydroxyacetamide] yielded an IC50 of 233 nM.

On to `CC1(C)[C@H]2CC[C@]1(CNC1COC1)c1nnc(-c3c(F)cccc3F)cc12` [Example 317, N-(((5R,8S)-3-(2,6-difluorophenyl)-9,9-dimethyl-5,6,7,8-tetrahydro-5,8-methanocinnolin-8-yl)methyl)oxetan-3-amine], for which the IC50 was determined as 1920 nM. In the case of `CCN(C[C@@]12CC[C@@H](c3cc(-c4c(F)cccc4F)nnc31)C2(C)C)C(=O)CS(C)(=O)=O` [Example 318, N-(((5R,8S)-3-(2,6-difluorophenyl)-9,9-dimethyl-5,6,7,8-tetrahydro-5,8-methanocinnolin-8-yl)methyl)-N-ethyl-2-(methylsulfonyl)acetamide], the IC50 amounted to 33 nM.

As for `CN([C@@]12CC[C@@H](c3cc(-c4c(F)cccc4F)nnc31)C2(C)C)S(=O)(=O)C(F)(F)F` [Example 319, N-((5R,8R)-3-(2,6-difluorophenyl)-9,9-dimethyl-5,6,7,8-tetrahydro-5,8-methanocinnolin-8-yl)-1,1,1-trifluoro-N-methylmethanesulfonamide], the 50% inhibitory concentration (IC50) came to 52 nM. For the compound `CN(C)C(=O)N[C@@]12CC[C@@H](c3cc(-c4c(F)cccc4F)nnc31)C2(C)C` [Example 320, 3-((5R,8R)-3-(2,6-difluorophenyl)-9,9-dimethyl-5,6,7,8-tetrahydro-5,8-methanocinnolin-8-yl)-1,1-dimethylurea], the 50% inhibitory concentration (IC50) was found to be 1500 nM.

The compound `CC(=O)NC(C)(C)[C@@]12CC[C@@H](c3cc(-c4c(F)cccc4F)nnc31)C2(C)C` [Example 321, N-(2-((5R,8S)-3-(2,6-difluorophenyl)-9,9-dimethyl-5,6,7,8-tetrahydro-5,8-methanocinnolin-8-yl)propan-2-yl)acetamide] came in with an IC50 of 79 nM.

In the case of `CC1(C)[C@H]2CC[C@]1(N(CC(F)F)C(=O)CO)c1nnc(-c3c(F)cccc3F)cc12` [Example 322, N-(2,2-difluoroethyl)-N-((5R,8R)-3-(2,6-difluorophenyl)-9,9-dimethyl-5,6,7,8-tetrahydro-5,8-methanocinnolin-8-yl)-2-hydroxyacetamide], the concentration for half-maximal inhibition (IC50) was determined as 1460 nM. For the compound `CCN(C[C@@]12CC[C@@H](c3cc(-c4c(F)cccc4F)nnc31)C2(C)C)c1cncc(=O)[nH]1` [Example 323, 6-((((5R,8S)-3-(2,6-difluorophenyl)-9,9-dimethyl-5,6,7,8-tetrahydro-5,8-methanocinnolin-8-yl)methyl)(ethyl)amino) pyrazin-2(1H)-one], the 50% inhibitory concentration (IC50) was found to be 12 nM. In the case of `C[C@H](O)C(=O)N(CCC#N)C[C@@]12CC[C@@H](c3cc(-c4c(F)cccc4F)nnc31)C2(C)C` [Example 324, (S)-N-(2-cyanoethyl)-N-(((5R,8S)-3-(2,6-difluorophenyl)-9,9-dimethyl-5,6,7,8-tetrahydro-5,8-methanocinnolin-8-yl)methyl)-2-hydroxypropanamide] it was 732 nM; in that of `CN(C)C(=O)N(C)[C@@]12CC[C@@H](c3cc(-c4c(F)cccc4F)nnc31)C2(C)C` [Example 325, 1-((5R,8R)-3-(2,6-difluorophenyl)-9,9-dimethyl-5,6,7,8-tetrahydro-5,8-methanocinnolin-8-yl)-1,3,3-trimethylurea], 944 nM.

In turn, `CC1(C)[C@H]2CC[C@]1(CN1CC(C#N)C1)c1nnc(-c3c(F)cccc3F)cc12` [Example 326, 1-(((5R,8S)-3-(2,6-difluorophenyl)-9,9-dimethyl-5,6,7,8-tetrahydro-5,8-methanocinnolin-8-yl)methyl)azetidine-3-carbonitrile] showed an IC50 of 1920 nM. For the compound `CCOC(=O)c1nnc([C@@]23CC[C@@H](c4cc(-c5c(F)cccc5F)nnc42)C3(C)C)o1` [Example 327, ethyl 5-((5R,8R)-3-(2,6-difluorophenyl)-9,9-dimethyl-5,6,7,8-tetrahydro-5,8-methanocinnolin-8-yl)-1,3,4-oxadiazole-2-carboxylate], the half-maximal inhibitory concentration (IC50) turned out to be 1390 nM. As to `CC1(C)[C@@H]2CC[C@@]1(CNCC(F)F)c1nnc(-c3c(F)cccc3F)cc12` [Example 328, N-(((5S,8R)-3-(2,6-difluorophenyl)-9,9-dimethyl-5,6,7,8-tetrahydro-5,8-methanocinnolin-8-yl)methyl)-2,2-difluoroethanamine], the IC50 was determined as 74 nM.

`CC1(C)[C@H]2CC[C@]1(COc1cnccn1)c1nnc(-c3c(F)cccc3F)cc12` [Example 329, (5R,8R)-3-(2,6-difluorophenyl)-9,9-dimethyl-8-((pyrazin-2-yloxy)methyl)-5,6,7,8-tetrahydro-5,8-methanocinnoline] yielded a half-maximal inhibitory concentration (IC50) of 271 nM. `CC1(C)[C@H]2CC[C@]1(COc1cncc(=O)[nH]1)c1nnc(-c3c(F)cccc3F)cc12` [Example 330, 6-(((5R,8R)-3-(2,6-difluorophenyl)-9,9-dimethyl-5,6,7,8-tetrahydro-5,8-methanocinnolin-8-yl)methoxy)pyrazin-2(1H)-one] came in with an IC50 of 1980 nM. Consider `CCNC[C@@]12CC[C@@H](c3cc(-c4c(F)cccc4F)nnc31)C2(C)C` [Example 331, N-(((5R,8S)-3-(2,6-difluorophenyl)-9,9-dimethyl-5,6,7,8-tetrahydro-5,8-methanocinnolin-8-yl)methyl)ethanamine], for which the IC50 stood at 877 nM. For `CC1(C)[C@@H]2CC[C@@]1(C(=O)N1CC(F)(F)C1)c1nnc(-c3ccccc3F)cc12` [Example 332, (3,3-difluoroazetidin-1-yl)((5S,8S)-3-(2-fluorophenyl)-9,9-dimethyl-5,6,7,8-tetrahydro-5,8-methanocinnolin-8-yl)methanone], the IC50 was 1400 nM. In the case of `CC1(C)[C@@H]2CC[C@@]1(C(=O)NC1CCC1)c1nnc(-c3ccccc3F)cc12` [Example 333, (5S,8S)-N-cyclobutyl-3-(2-fluorophenyl)-9,9-dimethyl-5,6,7,8-tetrahydro-5,8-methanocinnoline-8-carboxamide] it was 1500 nM; in that of `CNC(=O)[C@]12CC[C@H](c3cc(-c4ccccc4F)nnc31)C2(C)C` [Example 334, (5S,8S)-3-(2-fluorophenyl)-N,9,9-trimethyl-5,6,7,8-tetrahydro-5,8-methanocinnoline-8-carboxamide], 2100 nM.

The values above are taken from patent US9981916B2 (Genentech, Inc., priority 2013, dated 2018).
